Assay results from patent US4942040A, “Pharmaceutical preparation and a process for its preparation” (priority 1987, dated 1990).

Assays:
Format in all cases: physicochemical
[1] = Cumulative in vitro dissolution of felodipine and metoprolol (Example 1 tablet), USP dissolution apparatus No. 2, 50 rpm, pH 6.5 with 1% sodium dodecylsulphate; settings: pH 6.5, 1% sodium dodecylsulphate
Experimental: Cumulative in vitro dissolution of felodipine and metoprolol in
a phosphate buffer of pH 6.5 with 1% sodium dodecylsulphate.
Method: USP dissolution apparatus No. 2, 50 rpm.

[2] = Cumulative in vitro dissolution of nifedipine and metoprolol (Example 2 tablet), USP dissolution apparatus No. 2, 100 rpm, pH 6.5 with 1% sodium dodecylsulphate; settings: pH 6.5, 1% sodium dodecylsulphate
[3] = Cumulative in vitro dissolution of metoprolol (Reference example B tablet), USP dissolution apparatus No. 2, 50 rpm, phosphate buffer pH 6.8; settings: phosphate buffer pH 6.8, 50 rpm
Description: The dissolution rate in vitro from this tablet is shown in Table 3. |Cumulative in vitro dissolution of metoprolol in a phosphate buffer |pH 6.8. |Method: […]

SMILES | Percent released over time (h) ([1]; 0 h) [%] | Percent released over time (h) ([1]; 2 h) [%] | Percent released over time (h) ([1]; 4 h) [%] | Percent released over time (h) ([1]; 8 h) [%] | Percent released over time (h) ([1]; 12 h) [%] | Percent released over time (h) ([1]; 16 h) [%] | Percent released over time (h) ([1]; 20 h) [%] | Percent released over time (h) ([2]; 0 h) [%] | Percent released over time (h) ([2]; 2 h) [%] | Percent released over time (h) ([2]; 4 h) [%] | Percent released over time (h) ([2]; 8 h) [%] | Percent released over time (h) ([2]; 12 h) [%] | Percent released over time (h) ([2]; 16 h) [%] | Percent released over time (h) ([2]; 20 h) [%] | Percent released over time (h) ([3]; 0 h) [%] | Percent released over time (h) ([3]; 1 h) [%] | Percent released over time (h) ([3]; 4 h) [%] | Percent released over time (h) ([3]; 8 h) [%] | Percent released over time (h) ([3]; 12 h) [%] | Percent released over time (h) ([3]; 20 h) [%]
CCOC(=O)C1=C(C)NC(C)=C(C(=O)OC)C1c1cccc(Cl)c1Cl (stereo not drawn) [felodipine, 4-(2,3-dichlorophenyl)-1,4-dihydro-2,6-dimethyl-3,5-pyridinedicarboxylic acid ethyl methyl ester] | 0 | 14 | 32 | 64 | 88 | 96 | 98 |  |  |  |  |  |  |  |  |  |  |  |  | 
COCCc1ccc(OCC(O)CNC(C)C)cc1 (stereo not drawn) [metoprolol] | 0 | 5 | 16 | 39 | 65 | 86 | 95 | 0 | 6 | 16 | 34 | 50 | 62 | 75 | 0 | 23 | 59 | 86 | 99 | 100
